The record followed here is ChEMBL document CHEMBL1138537, “Small-molecule scaffolds for CYP51 inhibitors identified by high-throughput screening and defined by X-ray crystallography” (Antimicrob Agents Chemother, 2007).

pKd: −log10 of the molar value.

The test concerns the target Sterol 14alpha-demethylase (Mycobacterium tuberculosis, UniProt P9WPP9, F78L).

As a reminder, the pKd is the Kd on a negative log10 scale, so that one unit is a factor of ten. Low readings indicate a large Kd, high ones a small Kd. For the compound `O=C(Nc1ccncc1)C(NS(=O)(=O)c1cccc2nsnc12)c1ccccc1` (stereo unspecified), the pKd was 4.63.
